The structures appear in SMILES notation. Structures can show the parent of a compound that is named as a salt.

human MCH-1 receptor, sequence (Q99705 whole entry): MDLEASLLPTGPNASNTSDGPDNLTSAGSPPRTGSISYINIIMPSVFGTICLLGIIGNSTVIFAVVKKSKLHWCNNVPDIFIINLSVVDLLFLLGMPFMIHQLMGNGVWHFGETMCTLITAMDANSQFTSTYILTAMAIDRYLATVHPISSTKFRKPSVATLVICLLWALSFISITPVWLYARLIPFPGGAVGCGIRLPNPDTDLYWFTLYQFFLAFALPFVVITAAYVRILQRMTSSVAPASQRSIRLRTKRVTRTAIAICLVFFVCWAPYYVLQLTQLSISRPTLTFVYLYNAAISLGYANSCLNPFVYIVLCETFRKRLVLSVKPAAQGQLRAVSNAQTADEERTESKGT

The first assay has as its target human MCH-1 receptor (Homo sapiens, UniProt Q99705). The experiment in a line: Binding assay for human melanin-concentrating hormone (MCH-1) receptor, radioligand displacement on CHO-K1 cell membranes.
Settings: not given
(In general: Loss of bound radioactivity is the signal in a displacement assay; it reports binding, not function.)
As usually defined, the Ki is the equilibrium dissociation constant of an inhibitor or competing ligand from its target. Low readings indicate tighter binding, high ones weaker binding. Regarding `O=C1CN(CCc2ccc(Cl)cn2)CCN1c1ccc2c3c(oc2c1)CCNCC3` [Example 98, 4-(2-(5-Chloropyridin-2-yl)ethyl)-1-(2,3,4,5-tetrahydro-1H-benzofuro[2,3-d]azepin-8-yl)piperazin-2-one hydrochloride], the Ki worked out at 153 nM. For `O=c1cc(OCc2ccccc2)ccn1-c1ccc2oc3c(c2c1)CNCC3` [Example 74, 4-(Benzyloxy)-1-(1,2,3,4-tetrahydrobenzofuro[3,2-c]pyridin-8-yl)pyridin-2(1H)-one hydrochloride], the Ki was determined as 373 nM. This Ki is about 2.4-fold higher than that of the molecule before. On the same count and under the same terms, the result for `O=c1cc(-c2ccc(C(F)(F)F)cn2)ccn1-c1ccc2c3c(oc2c1)CCCNC3` [Example 36, 1-(2,3,4,5-Tetrahydro-1H-benzofuro[3,2-c]azepin-8-yl)-4-(5-(trifluoromethyl)pyridin-2-yl)pyridin-2(1H)-one hydrochloride] reads 39 nM. The same measure, in the same setting: the result for `O=c1cc(CCc2ccccc2)ccn1-c1ccc2c3c(oc2c1)CCCNC3` [Example 108, 4-Phenethyl-1-(2,3,4,5-tetrahydro-1H-benzofuro[3,2-c]azepin-8-yl)pyridin-2(1H)-one hydrochloride] reads 3.2 nM; that for `O=C1CN(CCc2ccc(Cl)cn2)CCN1c1ccc2c3c(sc2c1)CNCC3` [Example 121, 4-(2-(5-Chloropyridin-2-yl)ethyl)-1-(1,2,3,4-tetrahydrobenzothieno[2,3-c]pyridin-7-yl)piperazin-2-one hydrochloride], 44 nM; that for `O=C1CN(CCc2ccc(F)cn2)CCN1c1ccc2c3c(sc2c1)CNCC3` [Example 60, 4-(2-(5-Fluoropyridin-2-yl)ethyl)-1-(1,2,3,4-tetrahydrobenzothieno[2,3-c]pyridin-7-yl)piperazin-2-one hydrochloride], 118 nM. Still for that read-out and setting: next, `CC(C)N1CCc2oc3cc(-n4ccc(OCc5ccc(F)cn5)cc4=O)ccc3c2C1` [Example 28, 4-((5-Fluoropyridin-2-yl)methoxy)-1-(2-isopropyl-1,2,3,4-tetrahydrobenzofuro[3,2-c]pyridin-7-yl)pyridin-2(1H-one hydrochloride]: 9.8 nM; `Cc1ccc(COc2ccn(-c3ccc4c5c(oc4c3)CCCNC5)c(=O)c2)cn1` [Example 46, 4-((6-Methylpyridin-3-yl)methoxy)-1-(2,3,4,5-tetrahydro-1H-benzofuro[3,2-c]azepin-8-yl)pyridin-2(1H)-one hydrochloride]: 47 nM. Consider `O=c1cc(OCc2ccccc2)ccn1-c1ccc2c3c(sc2c1)CNCC3` [Example 15, 4-(Benzyloxy)-1-(1,2,3,4-tetrahydrobenzothieno[2,3-c]pyridin-7-yl)pyridin-2(1H)-one], for which the Ki is 4 nM.

In turn, `CC(=O)N1CCc2oc3cc(-n4ccc(OCc5ccc(F)cn5)cc4=O)ccc3c2C1` [Example 29, 1-(2-Acetyl-1,2,3,4-tetrahydrobenzofuro[3,2-c]pyridin-7-yl)-4-((5-fluoropyridin-2-yl)methoxy)pyridin-2(1H)-one] gave a Ki of 46 nM.

As to `C[C@@H]1NCCc2oc3cc(-n4ccc(OCc5ccccc5)cc4=O)ccc3c21` [Example 33, (S)-4-(Benzyloxy)-1-(1-methyl-1,2,3,4-tetrahydrobenzofuro[3,2-c]pyridin-7-yl)pyridin-2(1H)-one hydrochloride], the affinity corresponds to a Ki of 6 nM. Molecule `O=c1cc(OCc2ccccc2)ccn1-c1ccc2c3c(oc2c1)CCN(CCF)C3` [Example 92, 4-(Benzyloxy)-1-(2-(2-fluoroethyl)-1,2,3,4-tetrahydrobenzofuro[3,2-c]pyridin-7-yl)pyridin-2(1H)-one hydrochloride] yielded an inhibition constant Ki of 25 nM. Take `O=c1cc(OCc2ccc(C(F)(F)F)cn2)ccn1-c1ccc2c3c(oc2c1)CCNC3` [Example 115, 1-(1,2,3,4-Tetrahydrobenzofuro[3,2-c]pyridin-7-yl)-4-((5-(trifluoromethyl)pyridin-2-yl)methoxy)pyridin-2(1H)-one hydrochloride]: the Ki worked out at 13 nM. The same measure, in the same setting: next, `O=c1cc(OCc2cccc(C(F)(F)F)n2)ccn1-c1ccc2c3c(oc2c1)CCNC3` [Example 31, 1-(1,2,3,4-Tetrahydrobenzofuro[3,2-c]pyridin-7-yl)-4-((6-(trifluoromethyl)pyridin-2-yl)methoxy)pyridin-2(1H)-one hydrochloride]: 23 nM. In the case of `O=c1cc(OCc2ccc(C(F)(F)F)nc2)ccn1-c1ccc2c3c(sc2c1)CNCC3` [Example 64, 1-(1,2,3,4-Tetrahydrobenzothieno[2,3-c]pyridin-7-yl)-4-((6-(trifluoromethyl)pyridin-3-yl)methoxy)pyridin-2(1H)-one hydrochloride], the affinity corresponds to a Ki of 48 nM. This Ki lies about 2.1-fold higher than the previous one. In turn, `O=c1cc(OCc2ccc(F)cn2)ccn1-c1ccc2c3c(sc2c1)CNCC3` [Example 14, 4-((5-Fluoropyridin-2-yl)methoxy)-1-(1,2,3,4-tetrahydrobenzothieno[2,3-c]pyridin-7-yl)pyridin-2(1H)-one hydrochloride] showed a Ki of 6.2 nM. This Ki lies about 7.7-fold lower than the previous one.

The molecule `O=c1cc(-c2ccc(C(F)(F)F)nn2)ccn1-c1ccc2c3c(oc2c1)CCCNC3` [Example 106, 1-(2,3,4,5-Tetrahydro-1H-benzofuro[3,2-c]azepin-8-yl)-4-(6-(trifluoromethyl)pyridazin-3-yl)pyridin-2(1H)-one hydrochloride] gave an inhibitory constant (Ki) of 199 nM.

In turn, `O=C1CN(CCc2ccc(Cl)cc2)CCN1c1ccc2c3c(oc2c1)CCCNC3` [Example 89, 4-(4-Chlorophenethyl)-1-(2,3,4,5-tetrahydro-1H-benzofuro[3,2-c]azepin-8-yl)piperazin-2-one hydrochloride] had a Ki of 17 nM.

Molecule `O=c1cc(OCc2ccc(F)cn2)ccn1-c1ccc2c3c(sc2c1)CNCCC3` [Example 18, 4-((5-Fluoropyridin-2-yl)methoxy)-1-(2,3,4,5-tetrahydro-1H-benzothieno[2,3-c]azepin-8-yl)pyridin-2(1H)-one] registered a Ki of 12 nM. Still for that read-out and setting: next, `O=c1cc(OCc2cccc(C(F)(F)F)n2)ccn1-c1ccc2c3c(oc2c1)CCCNC3` [Example 43, 1-(2,3,4,5-Tetrahydro-1H-benzofuro[3,2-c]azepin-8-yl)-4-((6-(trifluoromethyl)pyridin-2-yl)methoxy)pyridin-2(1H)-one hydrochloride]: 9.7 nM; `O=c1cc(OCc2ccc(C(F)(F)F)nc2)ccn1-c1ccc2c3c(oc2c1)CCNCC3` [Example 47, 1-(2,3,4,5-Tetrahydro-1H-benzofuro[2,3-d]azepin-8-yl)-4-((6-(trifluoromethyl)pyridin-3-yl)methoxy)pyridin-2(1H)-one hydrochloride]: 55 nM.

On to `C[C@@H]1Cc2oc3cc(-n4ccc(OCc5ccccn5)cc4=O)ccc3c2CN1` [Example 8, (R)-1-(3-Methyl-1,2,3,4-tetrahydrobenzofuro[3,2-c]pyridin-7-yl)-4-(pyridin-2-ylmethoxy)pyridin-2(1H)-one hydrochloride], for which the inhibition constant Ki came out at 57 nM.

`CCN1CCc2c(sc3cc(-n4ccc(OCc5ccc(F)cn5)cc4=O)ccc23)C1` [Example 56, 1-(2-Ethyl-1,2,3,4-tetrahydrobenzothieno[2,3-c]pyridin-7-yl)-4-((5-fluoropyridin-2-yl)methoxy)pyridin-2(1H)-one hydrochloride] registered a Ki of 9.5 nM. Molecule `O=C1CN(CCc2ccc(F)cn2)CCN1c1ccc2c3c(oc2c1)CCCNC3` [Example 83, 4-(2-(5-Fluoropyridin-2-yl)ethyl)-1-(2,3,4,5-tetrahydro-1H-benzofuro[3,2-c]azepin-8-yl)piperazin-2-one hydrochloride] had a Ki of 52 nM.

Consider `O=c1cc(OCc2ccc(C(F)(F)F)nc2)ccn1-c1ccc2c3c(oc2c1)CCCNC3` [Example 45, 1-(2,3,4,5-Tetrahydro-1H-benzofuro[3,2-c]azepin-8-yl)-4-((6-(trifluoromethyl)pyridin-3-yl)methoxy)pyridin-2(1H)-one hydrochloride], for which affinity was put at a Ki of 29 nM. In the case of `O=c1cc(OCc2ccccc2)ccn1-c1ccc2c3c(sc2c1)CCCNC3` [Example 122, 4-(Benzyloxy)-1-(2,3,4,5-tetrahydro-1H-benzothieno[3,2-c]azepin-8-yl)pyridin-2(1H)-one hydrochloride], the Ki came to 3.3 nM. This Ki is about 8.8-fold lower than that of the molecule before. For the molecule `O=c1cc(OCc2ccc(F)cn2)ccn1-c1ccc2c3c(oc2c1)CC1CCC3N1` (stereo not drawn) [Example 129, 4-((5-Fluoropyridin-2-yl)methoxy)-1-(7,8,9,10-tetrahydro-6H-7,10-epiminocyclohepta[b]benzofuran-3-yl)pyridin-2(1H)-one hydrochloride], the affinity, expressed as Ki, was 14 nM. Against the preceding molecule, the Ki is about 4.2-fold higher. Still for that read-out and setting: next, `O=c1cc(OCc2ccc(F)cn2)cnn1-c1ccc2c3c(oc2c1)CCCNC3` [Example 44, 5-((5-Fluoropyridin-2-yl)methoxy)-2-(2,3,4,5-tetrahydro-1H-benzofuro[3,2-c]azepin-8-yl)pyridazin-3(2H)-one hydrochloride]: 13 nM. Still for that read-out and setting: next, `O=c1cc(OCc2ccc(F)cn2)ccn1-c1ccc2c3c(sc2c1)CCCNC3` [Example 124, 4-((5-Fluoropyridin-2-yl)methoxy)-1-(2,3,4,5-tetrahydro-1H-benzothieno[3,2-c]azepin-8-yl)pyridin-2(1H)-one hydrochloride]: 3.7 nM.

Staying with this assay, now noted: read-out: MCH1 % inhibition @ 1 uM.
Usually inhibition stands for the change of the read-out against control, counted positive when it falls. Turning to `O=c1cc(OCc2ccccc2)ccn1-c1ccc2oc3c(c2c1)CNCCC3` [Example 78, 4-(Benzyloxy)-1-(2,3,4,5-tetrahydro-1H-benzofuro[3,2-c]azepin-9-yl)pyridin-2(1H)-one hydrochloride], the inhibition at 1 µM was found to be 35%. Still for that read-out and setting: next, `O=c1cc(OCc2ccccc2)ccn1-c1ccc2oc3c(c2c1)CCCNC3` [Example 110, 4-(Benzyloxy)-1-(2,3,4,5-tetrahydro-1H-benzofuro[2,3-c]azepin-7-yl)pyridin-2(1H)-one hydrochloride]: 12%. `CC(C)N1CCCc2oc3cc(N4CCN(CCc5ccc(Cl)cn5)CC4=O)ccc3c2C1` [Example 97, 4-(2-(5-Chloropyridin-2-yl)ethyl)-1-(2-isopropyl-2,3,4,5-tetrahydro-1H-benzofuro[3,2-c]azepin-8-yl)piperazin-2-one hydrochloride]: the inhibition at 1 µM stood at 66%. On the same count and under the same terms, next, `O=c1cc(OCc2ccc(F)cn2)ccn1-c1ccc2oc3c(c2c1)CNCC3` [Example 76, 4-((5-Fluoropyridin-2-yl)methoxy)-1-(1,2,3,4-tetrahydrobenzofuro[3,2-c]pyridin-8-yl)pyridin-2(1H)-one hydrochloride]: 35%.

Source of the values: patent US20140163012A1, “PYRIDO-/AZEPINO-BENZOFURAN AND PYRIDO-/AZEPINO-BENZOTHIOPHENE MCH-1 ANTAGONISTS, METHODS OF MAKING, AND USE THEREOF” (Albany Molecular Research, Inc., priority 2012, published 2014).
